pIC50: −log10 of the molar value. Read-outs that look alike come from different tables or passages of the source.
Experiments:
[1] = target: T1, KPC-2 β-lactamase (Klebsiella pneumoniae, UniProt Q9F663); test: β-lactamase enzyme inhibition, KPC-2; assay type: biochemical
T1 construct: made in house; host or cells: E. coli BL21(DE3)
Method in brief: (§1)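 IC50 values reflect inhibitor concentrations halving the initial hydrolysis rate relative to uninhibited wells. Untagged recombinant enzymes were exposed to inhibitor at 37° C for 15 min before substrate addition: 100 μM nitrocefin for OXA-1 and p99 AmpC, imipenem for KPC-2, cefotaxime for SHV-5, each monitored spectrophotometrically for 10 min.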

[2] = test system: K. pneumoniae A-1797 expressing KPC-2 and VIM-4; test: broth microdilution MIC, K. pneumoniae KPC-2 and VIM-4; assay type: cell-based; details: Fixed Mero (meropenem) 4 μg/mL
Method in brief: (§2)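 Potentiation MICs were run by CLSI broth microdilution in cation-adjusted Mueller Hinton broth, with test compound serially diluted 2-fold from 32 to 0.25 μg/mL against a fixed 4 μg/mL beta-lactam overlay. Plates were incubated 16-20 hours at 37° C and the MIC was read visually.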

[3] = test system: K. pneumoniae 156319 expressing KPC-3; test: broth microdilution MIC, K. pneumoniae KPC-3; assay type: cell-based; details: Fixed Mero (meropenem) 4 μg/mL
Method in brief: as §2

[4] = target: T2, SHV-5 β-lactamase (Klebsiella pneumoniae, UniProt P0A3M1); test: β-lactamase enzyme inhibition, SHV-5; assay type: biochemical
T2 construct: made in house; host or cells: E. coli BL21(DE3)
Method in brief: as §1

[5] = target: T3, VIM-2 metallo β-lactamase (Pseudomonas aeruginosa, UniProt Q9K2N0); test: β-lactamase enzyme inhibition, VIM-2; assay type: biochemical; details: Nitrocefin 100 μM, 486 nm; 15 min at 37° C. preincubation; read-out: IC50 VIM-2 (Class B)
T3 construct: made in house; host or cells: E. coli BL21(DE3)
Method in brief: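 VIM-2 purified by Q sepharose anion exchange (50 mM Hepes pH 7.5, 0-600 mM NaCl gradient, two runs, >90% purity). Enzyme preincubated with inhibitor 15 min at 37° C; nitrocefin 100 μM final, absorbance at 486 nm followed 10 min. IC50 from initial hydrolysis rates versus inhibitor-free controls.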

[6] = target: T4, p99 AmpC β-lactamase (Enterobacter cloacae, UniProt P05364); test: β-lactamase enzyme inhibition, p99 AmpC; assay type: biochemical
T4 construct: made in house; host or cells: E. coli BL21(DE3)
Method in brief: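 Native untagged E. cloacae p99 AmpC was expressed in E. coli BL21(DE3) and purified by cation exchange and gel filtration. Enzyme was preincubated with inhibitor at 37°C for 15 min.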

[7] = test system: E. cloacae 144200 expressing Class C P99 AmpC; test: broth microdilution MIC, E. cloacae P99; assay type: cell-based; details: Fixed CAZ (ceftazidime) 4 μg/mL
Method in brief: as §2

[8] = test system: P. aeruginosa Ps296 expressing VIM-2; test: broth microdilution MIC, P. aeruginosa VIM-2; assay type: cell-based; details: Fixed Mero (meropenem) 4 μg/mL
Excerpt: (§3) To determine the ability of test compounds to potentiate the inhibition of the growth of bacterial strains that produce beta-lactamase enzymes, classic cell based broth microdilution MIC assays were employed. Six bacteria strains producing beta-lactamase enzymes were used: E. coli expressing the Class A Extended Spectrum Beta-Lactamase (ESBL) CTX-M-15, E. cloacae expressing the Class C P99, K. pneumoniae expressing the Class A carbapenemase KPC-3, P. aeruginosa expressing the Class B carbapenemase VIM-2, K pneumoniae expressing the class A carbapenemase KPC-2 and the class B carbapenemase VIM-4, and S. aureus producing the Class A penicillinase PC-1. The assay was conducted in Cation Adjusted Mueller Hinton Broth (CAMHB, BD #212322, BD Diagnostic Systems, Sparks, Md.). Bacteria strains were grown for 3-5 hours in CAMBH broth. Test compounds were added to a microtiter plate in 2-fold serial dilutions in CAMHB in a final concentration range of 32 μg/mL to 0.25 μg/ml. An overlay of CAMHB containing a Beta-lactam was added to the compounds at a final static concentration of 4 μg/ml. […] In addition to the titration of test compounds the MICs of a panel of control beta-lactams is also tested to ensure the strains are behaving consistently from test to test. Once the test compound and antibiotics are added the plates can be inoculated according to CLSI broth microdilution method. After inoculation the plates are incubated for 16-20 hours at 37° C., then the Minimal Inhibitory Concentration (MIC) of the test compound is determined visually.
(§4) Using the methodology described above, examples of the current invention were evaluated for their ability to inhibit the growth of β-lactamase-producing bacteria in the presence of a β-lactam antibiotic.
(§5) Representative results are shown in Table 4 where A represents an MIC of the fixed β-lactam antibiotic in the presence of >32 µg/mL of a β-lactamase inhibitor of exemplary compounds, B represents the MIC in the presence of between 8 and 32 µg/mL of a β-lactamase inhibitor of exemplary compounds, and C represents the MIC in the presence of ≤4 µg/mL of a β-lactamase inhibitor of exemplary compounds. NT=Not Tested.

[9] = target: T5, OXA-1 β-lactamase (Escherichia coli, UniProt P13661); test: β-lactamase enzyme inhibition, OXA-1; assay type: biochemical; details: Nitrocefin 100 μM, 486 nm; 15 min at 37° C. preincubation; read-out: IC50 OXA-1 (Class D)
T5 construct: made in house; host or cells: E. coli BL21(DE3)
Method in brief: as §1

[10] = test system: S. aureus MSSA-7 producing penicillinase PC-1; test: broth microdilution MIC, S. aureus PC-1; assay type: cell-based; details: Fixed Pip (piperacillin) 4 μg/mL
Excerpt: as §3, §4, §5

[11] = test system: E. coli ESBL4 expressing CTX-M-15; test: broth microdilution MIC, E. coli CTX-M-15; assay type: cell-based; details: Fixed CAZ (ceftazidime) 4 μg/mL
Method in brief: as §2

[12] = imipenem substrate, 300 nm, 15 min at 37° C. preincubation, read-out: IC50 KPC-2 (Class A)

T5 sequence (P13661 26-276): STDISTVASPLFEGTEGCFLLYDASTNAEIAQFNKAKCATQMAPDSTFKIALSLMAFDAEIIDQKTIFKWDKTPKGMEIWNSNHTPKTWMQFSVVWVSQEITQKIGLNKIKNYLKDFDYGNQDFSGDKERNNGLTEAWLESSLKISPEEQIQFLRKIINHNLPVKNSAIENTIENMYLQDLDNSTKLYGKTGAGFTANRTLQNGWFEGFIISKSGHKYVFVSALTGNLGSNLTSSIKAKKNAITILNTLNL
T2 sequence (P0A3M1 22-286): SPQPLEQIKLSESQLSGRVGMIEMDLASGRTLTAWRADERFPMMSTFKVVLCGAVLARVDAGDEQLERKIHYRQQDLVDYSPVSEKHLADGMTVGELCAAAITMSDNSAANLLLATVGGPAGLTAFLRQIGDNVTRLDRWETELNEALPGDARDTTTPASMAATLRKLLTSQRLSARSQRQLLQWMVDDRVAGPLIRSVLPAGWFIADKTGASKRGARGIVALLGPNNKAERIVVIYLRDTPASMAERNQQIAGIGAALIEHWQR
T4 sequence (P05364 21-381): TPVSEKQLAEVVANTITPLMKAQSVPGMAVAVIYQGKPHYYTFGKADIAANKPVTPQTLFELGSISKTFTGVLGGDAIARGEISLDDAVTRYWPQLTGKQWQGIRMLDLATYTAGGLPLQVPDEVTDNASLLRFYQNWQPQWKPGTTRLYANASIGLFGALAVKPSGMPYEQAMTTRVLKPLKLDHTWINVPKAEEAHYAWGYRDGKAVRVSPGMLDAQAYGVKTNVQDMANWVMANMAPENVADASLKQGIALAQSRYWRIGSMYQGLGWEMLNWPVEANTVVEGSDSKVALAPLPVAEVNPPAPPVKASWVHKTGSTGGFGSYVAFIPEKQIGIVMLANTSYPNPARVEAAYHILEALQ
T1 sequence (Q9F663 25-293, looked up): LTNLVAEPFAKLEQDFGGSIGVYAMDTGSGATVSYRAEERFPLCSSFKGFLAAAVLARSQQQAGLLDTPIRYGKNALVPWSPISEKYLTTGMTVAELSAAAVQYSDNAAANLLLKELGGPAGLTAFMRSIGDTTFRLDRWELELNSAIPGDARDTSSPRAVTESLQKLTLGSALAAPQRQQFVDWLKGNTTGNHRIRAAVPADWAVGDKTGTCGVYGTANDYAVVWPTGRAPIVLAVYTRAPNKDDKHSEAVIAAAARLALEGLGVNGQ

| SMILES | pIC50 [1, 12] | MIC of exemplary compounds in presence of fixed β-lactams, K.P. A-1797 KPC-2 VIM-4 [2] | MIC of exemplary compounds in presence of fixed β-lactams, K.P. 156319 KPC-3 [3] | pIC50 [4] | pIC50 [5] | pIC50 [6] | MIC of exemplary compounds in presence of fixed β-lactams, E. cl. 144200 p99 AmpC [7] | MIC of exemplary compounds in presence of fixed β-lactams, P. aerug. Ps296 VIM-2 [8] | pIC50 [9] | MIC of exemplary compounds in presence of fixed β-lactams, S. aureus MSSA-7 PC-1 [10] | MIC of exemplary compounds in presence of fixed β-lactams, E. coli ESBL4 CTX-M-15 [11] | pIC50 [1] |
| --- | --- | --- | --- | --- | --- | --- | --- | --- | --- | --- | --- | --- |
| O=C(CCN1C(=O)CCC1=O)N[C@H]1Cc2cccc(C(=O)O)c2OB1O [Example 34, (R)-3-[3-(2,5-Dioxo-pyrrolidin-1-yl)-propionylamino]-2-hydroxy-3,4-dihydro-2H-benzo[e][1,2]oxaborinine-8-carboxylicacid] | > 7.00 | B (B represents the MIC in the presence of between 8 and 32 g/mL of a β-lactamase inhibitor) | B (B represents the MIC in the presence of between 8 and 32 g/mL of a β-lactamase inhibitor) | > 7.00 | 5.00 to 6.00 | > 7.00 | C (C represents the MIC in the presence of ≤4 g/mL of a β-lactamase inhibitor) | B (B represents the MIC in the presence of between 8 and 32 g/mL of a β-lactamase inhibitor) | > 7.00 | C (C represents the MIC in the presence of ≤4 g/mL of a β-lactamase inhibitor) | C (C represents the MIC in the presence of ≤4 g/mL of a β-lactamase inhibitor) |  |
| N#CCCC(=O)N[C@H]1Cc2cccc(C(=O)O)c2OB1O [Example 8, (R)-3-(3-Cyano-propionylamino)-2-hydroxy-3,4-dihydro-2H-benzo[e][1,2]oxaborinine-8-carboxylic acid] |  | C (C represents the MIC in the presence of ≤4 g/mL of a β-lactamase inhibitor) | C (C represents the MIC in the presence of ≤4 g/mL of a β-lactamase inhibitor) | > 7.00 | 6.00 to 7.00 | > 7.00 | C (C represents the MIC in the presence of ≤4 g/mL of a β-lactamase inhibitor) | C (C represents the MIC in the presence of ≤4 g/mL of a β-lactamase inhibitor) | > 7.00 | C (C represents the MIC in the presence of ≤4 g/mL of a β-lactamase inhibitor) | C (C represents the MIC in the presence of ≤4 g/mL of a β-lactamase inhibitor) | > 7.00 |
| O=C(CN1CCCC1=O)N[C@H]1Cc2cccc(C(=O)O)c2OB1O [Example 33, (R)-2-Hydroxy-3-[2-(2-oxo-pyrrolidin-1-yl)-acetylamino]-3,4-dihydro-2H-benzo[e][1,2]oxaborinine-8-carboxylic acid] | > 7.00 | C (C represents the MIC in the presence of ≤4 g/mL of a β-lactamase inhibitor) | C (C represents the MIC in the presence of ≤4 g/mL of a β-lactamase inhibitor) | > 7.00 | 5.00 to 6.00 | > 7.00 | C (C represents the MIC in the presence of ≤4 g/mL of a β-lactamase inhibitor) | C (C represents the MIC in the presence of ≤4 g/mL of a β-lactamase inhibitor) | > 7.00 | C (C represents the MIC in the presence of ≤4 g/mL of a β-lactamase inhibitor) | C (C represents the MIC in the presence of ≤4 g/mL of a β-lactamase inhibitor) |  |
